Measured values: patent US20220381783A1, “BIOMARKER” (Oxford University Innovation Limited, priority 2019, published 2022)
Values belong to the molecule of their own block, whether it stands above or below them.

How the values were obtained:
[1] = target: T1, TOP1cc (Homo sapiens, UniProt P11387); assay: RADAR assay of TOP1cc accumulation; assay type: cell-based; details: HEK293 cells, 1 μM CPT for 1 hour, positive control
T1 construct: endogenous in cells; host or cells: HEK293
T1 sequence (P11387 2-765 limits assumed): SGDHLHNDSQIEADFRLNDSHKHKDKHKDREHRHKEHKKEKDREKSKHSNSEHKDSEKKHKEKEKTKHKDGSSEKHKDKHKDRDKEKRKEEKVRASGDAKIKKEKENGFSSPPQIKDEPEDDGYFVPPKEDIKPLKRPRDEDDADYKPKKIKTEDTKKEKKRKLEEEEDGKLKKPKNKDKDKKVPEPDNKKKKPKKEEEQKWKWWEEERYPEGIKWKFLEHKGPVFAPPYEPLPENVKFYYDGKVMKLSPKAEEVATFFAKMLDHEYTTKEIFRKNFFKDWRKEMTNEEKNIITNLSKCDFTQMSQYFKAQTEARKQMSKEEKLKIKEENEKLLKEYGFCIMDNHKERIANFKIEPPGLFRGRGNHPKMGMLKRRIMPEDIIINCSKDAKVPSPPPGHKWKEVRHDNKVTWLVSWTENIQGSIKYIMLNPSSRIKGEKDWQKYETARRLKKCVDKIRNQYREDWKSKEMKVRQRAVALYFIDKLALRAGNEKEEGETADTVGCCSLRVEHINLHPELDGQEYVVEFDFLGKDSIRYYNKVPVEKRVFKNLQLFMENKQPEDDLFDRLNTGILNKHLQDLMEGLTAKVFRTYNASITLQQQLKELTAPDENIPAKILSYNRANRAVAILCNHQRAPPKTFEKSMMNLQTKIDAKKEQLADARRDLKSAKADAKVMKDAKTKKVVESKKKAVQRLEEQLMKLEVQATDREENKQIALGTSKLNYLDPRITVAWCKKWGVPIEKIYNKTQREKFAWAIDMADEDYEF
Experimental: Treatment with 1 μM CPT for 1 hour was used as a positive control for TOP1cc induction. Double-stranded (ds)DNA is used as a loading control. […] FIG. 1C, Quantification of Figure 1A (error bars represent mean ±SEM; n=3; ***P<0.001, **P<0.01; Student's t-test).
Cells were grown to ˜70% confluency then lysed in M buffer (MB), containing 6 M guanidine thiocyanate, 10 mM Tris—HCl (pH 6.8), 20 mM EDTA, 4% Triton X-100, 1% N-lauroylsarcosine and 1% dithiothreitol. DNA was precipitated by adding 100% ethanol, then washed three times in wash buffer (20 mM Tris—HC1 pH 7.4, 150 mM NaCl and 50% ethanol), and solubilized in 8 mM NaOH. […] For TOP1ccs, samples were digested with Benzonase for 30 minutes at 37° C. and analysed by slot blot analysis on a Nitrocellulose membrane.
By lysing cells in chaotropic salts (6M guanidium isothiocyanate), detergents (4% Triton X-100 and 1% N-lauroylsarcosine), and a reducing agent (1% DTT), all molecular interactions, other than covalent interactions, are disrupted.

[2] = system: SUMOylated TOP1; assay: Denaturing immunoprecipitation of YFP-TOP1, SUMO immunoblot; assay type: cell-based, human; details: HEK293 cells, short treatment with a low dose (25 nM, 1 hour)
Experimental: FIG. 9A, Immunoblot analysis of SUMO1 & SUMO2/3 after denaturing immunoprecipitation of YFP-TOP1 from HEK293 cells treated or not with CPT (25 nM) for 1 or 24 hours. […] Asterisks indicate SUMOylated TOP1.
(§2) Cells were lysed in IP lysis buffer (50 mM Tris, pH 7.4, 150 mM NaCl, 1 mM EDTA, 0.5% Triton X-100) or IP denaturing buffer (i.e. IP lysis buffer containing 1% SDS) supplemented with protease and phosphatase inhibitors and incubated on ice for 10 min. Denaturing IPs were quenched with Triton X-100 (to a final concentration of 1%). Chromatin was pelleted by centrifugation for 5 min at 1,000×g and then digested with Benzonase at room temperature in Benzonase buffer (2 mM MgCl2, 50 mM Tris, pH 7.4, 150 mM NaCl). Lysates were incubated with anti-FLAG M2 agarose (Sigma-Aldrich), Strep-Tactin Sepharose (IBA), or GFP-trap agarose (Chromotek) for 1-2 h on a rotator at 4° C., washed three times with IP wash buffer (150 mM NaCl, 50 mM Tris-HC1; 0.5 mM EDTA), and resuspended in 2× Laemmli buffer.

[3] = target: T2, interaction between TEX264 and TOP1 (Homo sapiens, UniProt P11387); assay: Co-immunoprecipitation of TEX264-FLAG with TOP1; assay type: cell-based; details: HEK293 cells
T2 construct: FLAG immunoprecipitates prepared from HEK293 cells transiently expressing TEX264WT-FLAG cDNA or EV; expressed in transfected cells; host or cells: HEK293, transiently transfected with pCDNA3.1 TEX264-FLAG
T2 sequence (P11387 2-765 limits assumed): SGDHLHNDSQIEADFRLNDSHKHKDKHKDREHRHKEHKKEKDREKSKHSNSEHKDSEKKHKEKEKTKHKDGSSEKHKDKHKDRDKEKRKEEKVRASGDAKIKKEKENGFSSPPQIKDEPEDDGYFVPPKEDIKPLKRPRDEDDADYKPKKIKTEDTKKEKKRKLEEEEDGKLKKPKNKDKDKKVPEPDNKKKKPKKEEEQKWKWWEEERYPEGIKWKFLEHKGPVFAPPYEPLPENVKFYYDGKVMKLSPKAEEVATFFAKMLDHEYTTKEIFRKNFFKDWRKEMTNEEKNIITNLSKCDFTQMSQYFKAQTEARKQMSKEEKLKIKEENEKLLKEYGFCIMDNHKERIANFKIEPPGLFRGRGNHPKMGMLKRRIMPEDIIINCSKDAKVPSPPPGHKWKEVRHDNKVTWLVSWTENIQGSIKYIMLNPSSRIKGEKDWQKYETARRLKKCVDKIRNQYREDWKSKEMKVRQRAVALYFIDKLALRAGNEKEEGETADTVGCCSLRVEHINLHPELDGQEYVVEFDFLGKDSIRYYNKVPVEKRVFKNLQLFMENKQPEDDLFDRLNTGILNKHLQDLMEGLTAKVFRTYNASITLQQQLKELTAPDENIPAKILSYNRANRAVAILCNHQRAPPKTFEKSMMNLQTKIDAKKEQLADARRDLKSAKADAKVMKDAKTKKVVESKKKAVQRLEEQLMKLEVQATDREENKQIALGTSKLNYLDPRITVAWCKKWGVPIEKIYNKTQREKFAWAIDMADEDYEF
Experimental: FIG. 2D, FLAG immunoprecipitates prepared from HEK293 cells transiently expressing TEX264WT-FLAG cDNA or EV, treated with CPT (25 nM) or DMSO for 1 hour. FIG. 2E, Immunoblots of anti-Strep-tag immunoprecipitates prepared from wild-type (WT) or ΔTEX264 HEK293 cells expressing p97-Strep-Myc.
FIG. 7G, Immunoblot analysis of TEX264-FLAG immunoprecipitates prepared from HEK293 cells treated with the indicated doses of CPT for 1 hour.
as §2

[4] = system: metastatic colorectal cancer; details: patients with metastatic colorectal cancer; cited from earlier work
[5] = system: HEK293 cells; assay: Puromycin dose required to kill wild-type cells; assay type: cell-based, Human
Experimental: (§1) To generate CRISPR-Cas9 TEX264 knockout cells, two plasmids —a CRISPR/Cas9 KO plasmid containing guide RNA targeting TEX264 (sc-417333), and a homology directed repair plasmid containing a puromycin resistance cassette (sc-417333-HDR)—were purchased from Santa Cruz. 2.5 μg of each plasmid was transfected into early-passage HEK293, HeLa, and U2OS cells using Fugene HD (Promega). After 72 hours, media supplemented with puromycin was added to the cells. The puromycin dose required to kill wild-type cells was determined to be: 1.25 μg/ml for HEK293 cells, 0.6 μg/ml for HeLa cells, and 1 μg/ml for U2OS cells. After 72 hours, the puromycin-containing media was removed and cells were sorted using a cell sorter into single-cell populations on a 96-well plate. TEX264 expression was analysed by immunoblotting. Multiple clones of each cell line showing loss of all detectable TEX264 were selected for subsequent analysis.

[6] = system: HeLa cells; assay: Puromycin dose required to kill wild-type cells; assay type: cell-based, Human
Experimental: as §1

[7] = system: U2OS cells; assay: Puromycin dose required to kill wild-type cells; assay type: cell-based, Human
Experimental: as §1

[8] = target: T3, TOP1 cleavage complexes purified from HEK293 cells by CsCl-gradient fractionation
T3 chain: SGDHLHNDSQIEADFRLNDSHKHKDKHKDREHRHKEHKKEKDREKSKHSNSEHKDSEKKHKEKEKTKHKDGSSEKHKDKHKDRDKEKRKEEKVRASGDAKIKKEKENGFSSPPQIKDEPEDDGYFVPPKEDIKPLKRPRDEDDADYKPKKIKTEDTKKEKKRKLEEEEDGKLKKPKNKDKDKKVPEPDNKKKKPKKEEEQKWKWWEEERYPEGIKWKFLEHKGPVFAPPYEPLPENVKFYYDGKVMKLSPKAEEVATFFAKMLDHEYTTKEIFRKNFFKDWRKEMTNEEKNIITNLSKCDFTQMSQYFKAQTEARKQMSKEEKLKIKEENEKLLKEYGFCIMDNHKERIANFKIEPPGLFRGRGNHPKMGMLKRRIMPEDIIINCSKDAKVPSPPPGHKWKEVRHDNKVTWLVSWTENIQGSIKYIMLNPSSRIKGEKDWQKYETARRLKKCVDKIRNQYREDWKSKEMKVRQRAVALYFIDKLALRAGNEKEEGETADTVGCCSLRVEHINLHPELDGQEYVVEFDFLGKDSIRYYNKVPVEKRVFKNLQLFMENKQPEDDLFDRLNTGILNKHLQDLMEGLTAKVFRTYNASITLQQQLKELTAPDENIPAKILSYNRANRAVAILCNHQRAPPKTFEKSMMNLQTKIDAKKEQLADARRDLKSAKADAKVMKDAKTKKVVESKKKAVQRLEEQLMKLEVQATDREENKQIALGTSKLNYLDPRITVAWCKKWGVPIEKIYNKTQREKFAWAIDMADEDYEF

[9] = target: T4, endogenous p97 of HEK293 cells (human, UniProt P55072 2-806); assay: anti-Strep-tag immunoprecipitation from HEK293 cells, immunoblot (FIG. 10c)
T4 construct: Detected in immunoprecipitates by mass spectrometry or immunoblot; also called AAA ATPase p97
Experimental: FIG. 10A, Colony forming assay to assess the survival of HeLa cells transfected with the indicated siRNAs following a 24 hour treatment with the indicated doses of CPT. FIG. 10B, Immunoblots to confirm depletion efficacy in A. FIG. 10C, Analysis of anti-Strep-tag immunoprecipitates prepared from HEK293 cells expressing SPRTN-SSH, transfected with the indicated siRNA. FIG. 10D, Total DNA-protein crosslinks (DPCs) isolated by RADAR from HEK293 cells treated with the indicated siRNAs. DPCs were resolved by SDS-PAGE and visualised by silver staining. FIG. 10E, Quantification of FIG. 10D (error bars represent mean ±SD; n=2; **P<0.01; ns, not significant; Student's t-test). FIG. 10F, In vitro TOP1cc repair assay. TOP1ccs were purified by CsCl-gradient centrifugation from HEK293 cells, incubated with the indicated purified proteins (100 nM/reaction), slot-blotted onto a nitrocellulose membrane and probed with a […] -specific antibody.
To explore how TEX264 regulates SPRTN-dependent TOP1cc processing, SPRTN-SSH was immunoprecipitated from wild-type and TEX264-depleted HEK293 cell extracts. […] As p97 exists in hexameric complexes, it can bind multiple cofactors at a time (Buchberger et al., 2015; Hänzelmann et al., 2011). […]

T4 sequence (P55072 2-806 limits assumed): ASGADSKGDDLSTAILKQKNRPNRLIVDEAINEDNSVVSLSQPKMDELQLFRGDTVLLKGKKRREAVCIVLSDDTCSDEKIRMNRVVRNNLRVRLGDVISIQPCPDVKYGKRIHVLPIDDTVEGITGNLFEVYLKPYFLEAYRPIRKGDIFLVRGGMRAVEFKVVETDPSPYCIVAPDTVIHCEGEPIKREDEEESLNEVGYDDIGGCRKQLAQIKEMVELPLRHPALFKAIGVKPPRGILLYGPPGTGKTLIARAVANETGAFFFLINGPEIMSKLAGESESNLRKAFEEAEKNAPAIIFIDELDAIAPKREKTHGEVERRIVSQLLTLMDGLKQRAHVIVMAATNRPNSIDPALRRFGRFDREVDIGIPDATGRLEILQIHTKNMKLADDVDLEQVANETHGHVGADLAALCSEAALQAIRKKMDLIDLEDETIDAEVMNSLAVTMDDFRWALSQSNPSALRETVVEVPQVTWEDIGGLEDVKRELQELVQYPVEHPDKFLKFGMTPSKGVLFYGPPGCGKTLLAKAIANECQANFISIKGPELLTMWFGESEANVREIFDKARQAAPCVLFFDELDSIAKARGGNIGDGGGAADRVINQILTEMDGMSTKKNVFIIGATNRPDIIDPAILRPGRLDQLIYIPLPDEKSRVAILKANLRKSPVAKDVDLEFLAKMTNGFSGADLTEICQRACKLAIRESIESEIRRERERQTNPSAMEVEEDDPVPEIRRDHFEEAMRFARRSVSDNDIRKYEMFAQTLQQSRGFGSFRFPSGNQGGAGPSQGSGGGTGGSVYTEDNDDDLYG

Molecule: CC[C@@]1(O)C(=O)OCc2c1cc1n(c2=O)Cc2cc3ccccc3nc2-1 [CPT, Camptothecin]
TOP1cc accumulation [1]: substantial TOP1cc accumulation
SUMOylated TOP1, particularly SUMO1 [2]: moderate increases
co-immunoprecipitation of TOP1 with p97 or TEX264 ([3]; 1 μM CPT): did not co-immunoprecipitate
interaction between TEX264 and TOP1 ([3]; CPT 25 nM for 1 hour): increased markedly

Molecule: O=c1[nH]cc(F)c(=O)[nH]1 [FU, fluorouracil]
patient response rates [4]: 10-15%

Molecule: COc1ccc(C[C@H](N)C(=O)N[C@H]2[C@@H](O)[C@H](n3cnc4c(N(C)C)ncnc43)O[C@@H]2CO)cc1 [puromycin]
puromycin dose required to kill wild-type cells [5]: 1.25 µg/mL
puromycin dose required to kill wild-type cells [6]: 0.6 µg/mL
puromycin dose required to kill wild-type cells [7]: 1 µg/mL

binding result [9]: binds
B1: SPRTN-SSH expressed in HEK293 cells (enzyme)
chain: MDDDLMLALRLQEEWNLQEAERDHAQESLSLVDASWELVDPTPDLQALFVQFNDQFFWGQLEAVEVKWSVRMTLCAGICSYEGKGGMCSIRLSEPLLKLRPRKDLVETLLHEMIHAYLFVTNNDKDREGHGPEFCKHMHRINSLTGANITVYHTFHDEVDEYRRHWWRCNGPCQHRPPYYGYVKRATNREPSAHDYWWAEHQKTCGGTYIKIKEPENYSKKGKGKAKLGKEPVLAAENKDKPNRGEAQLVIPFSGKGYVLGETSNLPSPGKLITSHAINKTQDLLNQNHSANAVRPNSKIKVKFEQNGSSKNSHLVSPAVSNSHQNVLSNYFPRVSFANQKAFRGVNGSPRISVTVGNIPKNSVSSSSQRRVSSSKISLRNSSKVTESASVMPSQDVSGSEDTFPNKRPRLEDKTVFDNFFIKKEQIKSSGNDPKYSTTTAQNSSSSSSQSKMVNCPVCQNEVLESQINEHLDWCLEGDSIKVKSEESL
notes: also called SPRTN-wt-cSSH; not shown: C-terminal SSH tag (pulled down by anti-Strep-tag)
in vitro TOP1cc repair assay (slot blot with TOP1cc-specific antibody), SPRTN alone [8]: SPRTN alone could process only a small proportion of TOP1ccs
in vitro TOP1cc repair assay (slot blot with TOP1cc-specific antibody), TOP1ccs pre-incubated with p97 and TEX264 [8]: this activity was enhanced when TOP1ccs were pre-incubated with p97 and TEX264 prior to the addition of SPRTN
